Assay results: PubChem BioAssay (NCI)
“And” between values parts separate entries of the source, which are not always exact repeats. Equal values may be shown once.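 In this assay, cells in 96-well plates receive the compound at five concentrations for 48 hours. Endpoints are linearly interpolated between the surrounding concentrations. GI50 = concentration required for 50% inhibition of growth. The concentration for full growth arrest is given as TGI.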

How the values were obtained:
Experiment in all cases: DTP human tumour cell line panel, 48 h
[1] = tested on: NCI-H23 lung
[2] = tested on: SK-MEL-2 melanoma
[3] = tested on: RPMI-8226 leukemia
[4] = tested on: SR leukemia
[5] = tested on: MCF7 breast
[6] = tested on: MDA-MB-231 breast
[7] = tested on: OVCAR-5 ovarian
[8] = tested on: COLO 205 colon
[9] = tested on: U251 CNS
[10] = tested on: NCI-H522 lung

SMILES | GI50 [1] [µM] | TGI [1] [µM] | GI50 [2] [µM] | TGI [2] [µM] | GI50 [3] [µM] | TGI [3] [µM] | GI50 [4] [µM] | TGI [4] [µM] | GI50 [5] [µM] | TGI [5] [µM] | GI50 [6] | TGI [6] [µM] | GI50 [7] | TGI [7] [µM] | GI50 [8] | TGI [8] [µM] | GI50 [9] [µM] | TGI [9] | GI50 [10] [µM] | TGI [10] [µM]
COc1ccc(NC(=O)O[C@H]2[C@H](O[C@H]3[C@@H](O)COC(O[C@H]4C[C@H]5[C@@H]6CC=C7C[C@@H](O)CC[C@]7(C)[C@H]6CC[C@]5(C)[C@H]4[C@H](C)C(=O)CCC(C)C)[C@@H]3OC(C)=O)OC[C@@H](O)[C@@H]2O)cc1 (some centres not stated) | 0.0284 | 5.03 | < 0.01 | 0.192 | < 0.01 | 0.879 | < 0.01 | 29.9 | < 0.01 | 1.47 | 0.318 µM | 19.2 | 0.169 µM | 26.2 | 0.0105 µM | 0.0363 | < 0.01 | 12.2 µM | < 0.01 | 0.0759
COc1ccc(-n2sc(=O)n(Cc3ccc(COC(=O)C(C)c4ccc(CC(C)C)cc4)cc3)c2=O)cc1 (configuration not stated) | 5.72 | 14.1 | 8.01 | 17 | 1.51 | 4.11 | 1.46 | 50 | 1.82 | 9.54 | 1.86 µM | 7.11 | 5.58 µM | 11.8 | 1.1 µM | 2.6 | 6.83 | 14.5 µM | 0.994 | 2.25
N#Cc1c(Oc2ccc(F)c(NC(=O)Cc3cccc(C(F)(F)F)c3)c2)ccc2nc(NC(=O)C3CC3)sc12 | 0.714 | > 100 | 0.108 | 0.83 | 0.72 | > 100 | 0.672 | > 100 | 1.11 | > 100 | 0.422 µM | 6.26 | 0.412 µM | > 100 | 0.0299 µM | 2.63 | 0.491 | > 100 µM | 0.942 | > 25
COc1ccc(-c2cncn2-c2cc(OC)c(OC)c(OC)c2)cc1F | 0.149 | > 100 | < 0.0172 | > 100 | < 0.01 | 12.2 | < 0.01 |  | < 0.01 | > 100 | 0.103 µM | > 100 | 0.0789 µM | > 100 | < 0.0122 µM |  | < 0.0266 | > 100 µM | < 0.01 | 1.03
C/C(=N\Nc1cccc(Cl)n1)c1ccccn1 | 1.28 | > 37.6 | 2.72 | > 100 | 0.615 | 8.28 | 0.421 | > 44.2 | 2 | > 100 | 0.584 µM | > 100 | 0.819 µM | > 100 | 0.38 µM | > 21.5 | 0.582 | > 100 µM | 0.508 | > 40.3
O=C(CC1(O)C(=O)Nc2c(Cl)ccc(Cl)c21)c1ccc(C2CC2)cc1 (configuration not stated) | 0.772 | 23.1 | 2.06 | 8.83 | 0.87 | 16.5 | 0.106 | 15.3 | 0.322 | 14.5 | 2.64 µM | 21.8 | 2.05 µM | 16.8 | 0.801 µM | 3.06 | 1.13 | 14.6 µM | 0.43 | 1.9
O=C1c2cccc3cc([N+](=O)[O-])cc(c23)C(=O)N1O |  | > 100 |  | > 100 |  | > 100 |  | > 100 |  | 91.8 |  | > 100 |  | > 100 |  | > 100 |  | > 100 µM |  | > 100
CCN(CC)c1ccc2nc3c4ccccc4c(=NC(=O)c4ccccc4-c4c5ccc(N(CC)CC)cc5[o+]c5cc(N(CC)CC)ccc45)cc-3oc2c1 | 1.88 | 6.13 | 3.4 | 9.15 | 0.722 | 4.2 | 2.74 | 20.5 | 1.59 |  | 1.99 µM | 8.91 | 3.23 µM | 11.9 | 1.59 µM | 3.83 | 2.33 | 8.83 µM | 3.14 | 21.9
CCOc1cc(/C=N\NC(=O)N/N=C/c2ccc(O)c(OCC)c2)ccc1O | 4.22 | > 100 | 1.55 | > 100 | 4.79 | > 53 | 0.354 | > 39.1 | 0.815 | > 100 | 6.45 µM | > 100 | 59.3 µM | > 100 | 3.85 µM | 26.6 | 1.75 | > 100 µM | 0.281 | 1.49
O=C(NO)c1cnc(N2CCN(S(=O)(=O)c3ccc4ccccc4c3)CC2)nc1 | 0.103 | 0.897 | 0.0345 | 0.214 | 0.0208 | 17.6 | 0.0387 | > 90.7 | 0.0369 | > 76 | 0.199 µM | 5.28 | 0.0394 µM | 10.6 | 0.0564 µM | 0.294 | 0.0654 | 0.298 µM | 0.02 | 0.104
CCc1ccccc1-n1c(N)c(C#N)c(-c2ccc(OC)c(OC)c2)c(C#N)c1=O | 17 | 33.3 | 25.8 | 80.6 | 43.1 | > 100 | 15 | > 100 | 16.9 | 33.5 | 17.1 µM | 35.8 | 20.5 µM | 55.3 | > 100 µM | > 100 | 16.1 | 29.8 µM | 19 | 44.8
COc1cc(/C=C/C(=O)c2ccc(Nc3nc(Nc4ccccc4)nc(Nc4ccc(Cl)cc4)n3)cc2)cc(OC)c1OC | 11.9 | > 32.5 | > 32.5 | > 32.5 | 2.21 | 20.9 | 1.07 | 19.3 | 2.02 | > 32.5 | 18.5 µM | > 32.5 | 10.4 µM | > 32.5 | 8.55 µM | > 32.5 | 4.62 | > 32.5 µM | 13.9 | > 32.5
CS(=O)(=O)c1nc(Cl)c(Cl)c(C#N)c1Cl |  | 9 |  | 14.5 |  | 14.6 |  | > 36.4 |  | 13.2 |  | 3.24 |  | 9.41 |  | 3.08 |  | 11.7 µM |  | 1.28
CC[C@@]1(OC(=O)CN)C(=O)OCc2c1cc1n(c2=O)Cc2cc3c(N)c4c(cc3nc2-1)OCO4 | < 0.0001 |  | 0.0226 | 0.327 | 0.00261 | 0.719 | < 0.0001 | 0.159 | < 0.0001 |  | 0.0873 µM and 0.3 µM | > 100 | 0.0065 µM and 0.0427 µM |  | 0.0419 µM and 0.11 µM | 0.961 | < 0.0001 | 0.0186 µM and 0.0571 µM | 0.00115 | 0.146
Cc1cc2c(C(C)C)c(O)c(O)c(C=O)c2c(O)c1-c1c(C)cc2c(C(C)C)c(O)c(O)c(C=O)c2c1O (tested in a mixture with another compound) | 0.464 | 2.03 | 1.64 | 4.07 | 0.529 | 4.74 | 1.46 | 17.8 | 1.18 | 6.9 | 2.11 µM | 5.8 | 1.65 µM | 5.26 | 1.36 µM | 2.87 | 0.502 | 1.93 µM | 0.584 | 2.44
CC(=O)N[C@@H](Cc1ccc(OP(=O)(O)O)cc1)C(=O)N[C@H]1CCC(=O)N2CCC[C@@H](C(=O)NCc3ccc(O)cc3)N2C1=O | > 25 | > 25 | > 25 | > 25 | > 25 | > 25 | > 25 | > 25 | > 25 | > 25 | > 25 µM | > 25 | > 25 µM | > 25 | > 25 µM | > 25 | > 25 | > 25 µM | > 25 | > 25
Brc1ccc(Br)nn1 | 1.38 | 4.23 | 2.91 | 20.4 | 1.83 | 6.44 | 0.439 | 3.52 | 1.21 | 2.64 | 1.83 µM | 4.23 | 11.7 µM | 24.8 | 2.12 µM | 3.77 | 1.47 | 3.18 µM | 0.243 | 0.928
COC(=O)Nc1nc2ccc(Sc3ccccc3)cc2[nH]1 | 0.29 | 31 | 0.162 | 2.88 | 0.358 | > 36.6 | 0.035 |  | 0.0666 | 26 | 0.476 µM | 21.5 | 0.511 µM | 23.4 | 0.188 µM | 0.533 | 0.168 | 4.37 µM | 0.113 | 0.587
CON | > 100 | > 100 | > 100 | > 100 | > 100 | > 100 | > 100 | > 100 | > 100 | > 100 | > 100 µM | > 100 | > 100 µM | > 100 | > 100 µM | > 100 | > 100 | > 100 µM | > 100 | > 100
ClC1=C(Cl)C(Cl)=C(Cl)C1=Cc1ccc(Cl)cc1 | 0.796 | 2.85 | 2.13 | 4.35 | 0.422 | 5.32 | 0.253 | 1.72 | 0.386 | 1.79 | 0.302 µM | 1.08 | 0.705 µM | 2.05 | 0.406 µM | 1.52 | 0.344 | 1.23 µM | 0.23 | 0.655
O=C1c2ccccc2C(=O)c2c(NC(=O)c3ccc4c5c(ncnc35)-c3ccccc3C4=O)cccc21 |  | > 100 |  | > 100 |  | > 100 |  | > 100 |  | > 100 |  | > 100 |  | > 100 |  | > 100 |  | > 100 µM |  | > 100
CC(=O)OCC(=O)C1(O)C(C)CC2C3C=C(C)C4=Cc5c(cnn5-c5ccccc5)CC4(C)C3C(O)CC21C (configuration not stated) | 2.2 | 5.78 | 1.66 | 3.85 | < 0.0345 |  | 1.63 | > 27.2 | 1.47 | 5.22 | 1.85 µM | 4.34 | 1.1 µM | 3.92 | 1.72 µM | 3.26 | 1 | 3.77 µM | 1.97 | 5.24
C=C=[CH][Sn]([c]1ccccc1)([c]1ccccc1)[c]1ccccc1 | 1.58 | 3.47 | 1.84 | 3.71 | 1.4 | 4.36 | 1.32 | 8.39 | 1.41 | 2.81 | 1.79 µM | 3.36 | 1.46 µM | 2.9 | 1.52 µM | 2.87 | 1.66 | 3.16 µM | 1.36 | 2.85
CSc1ccc(C2=NN(C(=O)c3ccc(N)cc3)C(c3ccc(F)cc3)C2)cc1 (configuration not stated) | 17.5 | 37.9 | 21.1 | 39.9 | 1.88 | 4.41 | 1.52 | 4.31 | 3.42 | 15.2 | 12.6 µM | 30.6 | 16.7 µM | 31.2 | 7.45 µM | 22.7 | 3.56 | 12.6 µM | 13.8 | 30.9
COc1cc(C2C(C#N)=C(N)Oc3cc4c(cc32)OCO4)cc2c1OCO2 (configuration not stated) | 0.313 | > 100 | 0.525 | > 100 | 0.406 | > 71 | 0.0696 | > 100 | 0.187 | > 75 | 0.774 µM | > 100 | 1.29 µM | > 100 | 0.308 µM | 1.02 | 0.314 | > 38 µM | 0.0926 | 2.72
